Measured values published in ChEMBL document CHEMBL1201861, “Genomics of Drug Sensitity in Cancer screening data, Wellcome Trust Sanger Institute”.
Values joined by “and” are separate entries in the source; they are usually repeats but may differ in a detail not shown here. Identical values can stand only once. Where a SMILES comes first, the peptide text is derived from it. The star is where a group is joined. Cbz = O=C(OCc1ccccc1)*

Experiments:
Assay in all cases: cells
COLO-829 = assay type: functional, cell-based, Homo sapiens
Description: SANGER: Inhibition of human COLO-829 cell growth in a cell viability assay.

CW-2 = assay type: functional, cell-based, Homo sapiens;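 also: growth inhibition of CW-2 cells, read out by a cell viability assay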
Description: SANGER: Inhibition of human CW-2 cell growth in a cell viability assay.

D283 Med = assay type: functional, cell-based, Homo sapiens
Description: SANGER: Inhibition of human D-283MED cell growth in a cell viability assay.

DEL = assay type: functional, cell-based, Homo sapiens;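 also: growth inhibition of the human DEL cell line, read out with a cell viability assay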
Description: SANGER: Inhibition of human DEL cell growth in a cell viability assay.

EKVX = assay type: functional, cell-based, Homo sapiens;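 also: growth inhibition of human EKVX cells, read out with a cell viability assay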
Description: SANGER: Inhibition of human EKVX cell growth in a cell viability assay.

GI-ME-N = assay type: functional, cell-based, Homo sapiens;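 also: growth inhibition of human GI-ME-N cells, read out with a cell viability assay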
Description: SANGER: Inhibition of human GI-ME-N cell growth in a cell viability assay.

GR-ST = assay type: functional, cell-based, Homo sapiens
Description: SANGER: Inhibition of human GR-ST cell growth in a cell viability assay.

HCC1187 = assay type: functional, cell-based, Homo sapiens;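 also: growth inhibition of HCC1187 cells, read out with a cell viability assay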
Description: SANGER: Inhibition of human HCC1187 cell growth in a cell viability assay.

HD-MY-Z = assay type: functional, cell-based, Homo sapiens;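 also: growth inhibition of HD-MY-Z cells, read out with a cell viability assay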
Description: SANGER: Inhibition of human HD-MY-Z cell growth in a cell viability assay.

HL-60 = assay type: functional, cell-based, Homo sapiens;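 also: growth inhibition of human HL-60 cells, read out with a cell viability assay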
Description: SANGER: Inhibition of human HL-60 cell growth in a cell viability assay.

HT-144 = assay type: functional, cell-based, Homo sapiens
Description: SANGER: Inhibition of human HT-144 cell growth in a cell viability assay.

J-RT3-T3-5 = assay type: functional, cell-based, Homo sapiens;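 also: cell viability assay measuring growth inhibition of human J-RT3-T3-5 cells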
Description: SANGER: Inhibition of human J-RT3-T3-5 cell growth in a cell viability assay.

K5 = assay type: functional, cell-based, Homo sapiens
Description: SANGER: Inhibition of human K5 cell growth in a cell viability assay.

KALS-1 = assay type: functional, cell-based, Homo sapiens; conditions: read-out: IC50;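 also: growth inhibition of KALS-1 cells, determined with a cell viability assay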
Description: SANGER: Inhibition of human KALS-1 cell growth in a cell viability assay.

KM12 = assay type: functional, cell-based, Homo sapiens;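 also: KM12 cell growth inhibition, read out with a cell viability assay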
Description: SANGER: Inhibition of human KM12 cell growth in a cell viability assay.

KNS-81-FD = assay type: functional, cell-based, Homo sapiens;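 also: growth inhibition of KNS-81-FD cells, read out with a cell viability assay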
Description: SANGER: Inhibition of human KNS-81-FD cell growth in a cell viability assay.

KP-N-YS = assay type: functional, cell-based, Homo sapiens;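 also: cell viability assay measuring inhibition of cell line growth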
Description: SANGER: Inhibition of human KP-N-YS cell growth in a cell viability assay.

LB831-BLC = assay type: functional, cell-based, Homo sapiens;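 also: growth inhibition of LB831-BLC cells, read out with a cell viability assay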
Description: SANGER: Inhibition of human LB831-BLC cell growth in a cell viability assay.

LB996-RCC = assay type: functional, cell-based, Homo sapiens
Description: SANGER: Inhibition of human LB996-RCC cell growth in a cell viability assay.

LS-1034 = assay type: functional, cell-based, Homo sapiens
Description: SANGER: Inhibition of human LS-1034 cell growth in a cell viability assay.

Lu-65 = assay type: functional, cell-based, Homo sapiens;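 also: growth inhibition of Lu-65 cancer cells, read out by a cell viability assay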
Description: SANGER: Inhibition of human LU-65 cell growth in a cell viability assay.

LXF-289 cell line = assay type: functional, cell-based; conditions: Homo sapiens
Description: SANGER: Inhibition of human LXF-289 cell growth in a cell viability assay.

MEG-01 = assay type: functional, cell-based, Homo sapiens;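 also: growth inhibition of MEG-01 cells, read out by a cell viability assay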
Description: SANGER: Inhibition of human MEG-01 cell growth in a cell viability assay.

MHH-NB-11 = assay type: functional, cell-based, Homo sapiens;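 also: growth inhibition of human MHH-NB-11 cells, read out by a cell viability assay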
Description: SANGER: Inhibition of human MHH-NB-11 cell growth in a cell viability assay.

MHH-PREB-1 = assay type: functional, cell-based, Homo sapiens;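 also: cell viability assay measuring inhibition of proliferation of human MHH-PREB-1 cells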
Description: SANGER: Inhibition of human MHH-PREB-1 cell growth in a cell viability assay.

MOLT-4 = assay type: functional, cell-based, Homo sapiens;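 also: growth inhibition of MOLT-4 cells, determined with a cell viability readout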
Description: SANGER: Inhibition of human MOLT-4 cell growth in a cell viability assay.

MV4-11 = assay type: functional, cell-based, Homo sapiens, MV-4-11;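 also: cell viability readout measuring growth inhibition of human MV-4-11 cells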
Description: SANGER: Inhibition of human MV-4-11 cell growth in a cell viability assay.

NCI-H1650 = assay type: functional, cell-based, Homo sapiens;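 also: growth inhibition of human NCI-H1650 cells measured by a cell viability assay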
Description: SANGER: Inhibition of human NCI-H1650 cell growth in a cell viability assay.

NCI-H23 = assay type: functional, cell-based, Homo sapiens;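 also: cell viability assay measuring growth inhibition of NCI-H23 cells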
Description: SANGER: Inhibition of human NCI-H23 cell growth in a cell viability assay.

NCI-H720 = assay type: functional, cell-based, Homo sapiens;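 also: growth inhibition of human NCI-H720 cells determined by a cell viability assay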
Description: SANGER: Inhibition of human NCI-H720 cell growth in a cell viability assay.

NEC8 = assay type: functional, cell-based, Homo sapiens;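 also: growth inhibition of human NEC8 cells, read out by a cell viability assay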
Description: SANGER: Inhibition of human NEC8 cell growth in a cell viability assay.

NH-12 = assay type: functional, cell-based, Homo sapiens;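 also: growth inhibition of NH-12 cells, read out with a cell viability assay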
Description: SANGER: Inhibition of human NH-12 cell growth in a cell viability assay.

ONS-76 = assay type: functional, cell-based, Homo sapiens;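 also: growth inhibition of human ONS-76 cells, read out with a cell viability assay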
Description: SANGER: Inhibition of human ONS-76 cell growth in a cell viability assay.

PSN1 = assay type: functional, cell-based, Homo sapiens;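 also: suppression of growth of human PSN1 cells, read out by a cell viability assay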
Description: SANGER: Inhibition of human PSN1 cell growth in a cell viability assay.

RCC10RGB = assay type: functional, cell-based, Homo sapiens;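 also: growth inhibition of human RCC10RGB cells, read out by a cell viability assay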
Description: SANGER: Inhibition of human RCC10RGB cell growth in a cell viability assay.

RPMI-8226 = assay type: functional, cell-based, Homo sapiens
Description: SANGER: Inhibition of human RPMI-8226 cell growth in a cell viability assay.

SJSA-1 = assay type: functional, cell-based, Homo sapiens;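 also: growth inhibition of human SJSA-1 cells, read out through a cell viability measurement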
Description: SANGER: Inhibition of human SJSA-1 cell growth in a cell viability assay.

SK-LMS-1 = assay type: functional, cell-based, Homo sapiens;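 also: growth inhibition of human SK-LMS-1 cells, read out with a cell viability assay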
Description: SANGER: Inhibition of human SK-LMS-1 cell growth in a cell viability assay.

SK-N-DZ = assay type: functional, cell-based, Homo sapiens; conditions: read-out: IC50;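 also: growth inhibition of the cancer cell line, read out through a viability assay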
Description: SANGER: Inhibition of human SK-N-DZ cell growth in a cell viability assay.

SK-PN-DW = assay type: functional, cell-based, Homo sapiens;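 also: growth inhibition measured with a viability assay on these cells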
Description: SANGER: Inhibition of human SK-PN-DW cell growth in a cell viability assay.

A253 cell line = assay type: functional, cell-based, Homo sapiens;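 also: growth inhibition of A253 cells, read out with a cell viability assay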
Description: SANGER: Inhibition of human A253 cell growth in a cell viability assay.

AM-38 = assay type: functional, cell-based, Homo sapiens;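 also: growth inhibition of AM-38 cells of human origin, read out by a cell viability assay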
Description: SANGER: Inhibition of human AM-38 cell growth in a cell viability assay.

BB49-HNC = assay type: functional, cell-based, Homo sapiens;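 also: cell viability assay read-out, reported as inhibition of BB49-HNC cell growth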
Description: SANGER: Inhibition of human BB49-HNC cell growth in a cell viability assay.

TE-10 = assay type: functional, cell-based, Homo sapiens;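 also: growth inhibition of TE-10 cells, measured by a cell viability assay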
Description: SANGER: Inhibition of human TE-10 cell growth in a cell viability assay.

U-87 MG = assay type: functional, cell-based, Homo sapiens, U-87MG ATCC;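 also: growth inhibition of the cells measured with a viability assay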
Description: SANGER: Inhibition of human U-87-MG cell growth in a cell viability assay.

UACC-257 = assay type: functional, cell-based, Homo sapiens
Description: SANGER: Inhibition of human UACC-257 cell growth in a cell viability assay.

CCRF-CEM = assay type: functional, cell-based, Homo sapiens;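 also: inhibition of CCRF-CEM cell growth, measured by a cell viability assay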
Description: SANGER: Inhibition of human CCRF-CEM cell growth in a cell viability assay.

KG-1 = assay type: functional, cell-based, Homo sapiens; conditions: kg-1;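 also: growth inhibition of KG-1 cells, read out by a cell viability assay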
Description: SANGER: Inhibition of human KG-1 cell growth in a cell viability assay.

COc1ccc(N(C(=O)Oc2c(C)cccc2C)c2ccnc(Nc3ccc(N4CCN(C)CC4)cc3)n2)c(OC)c1
IC50 (COLO-829; Homo sapiens, COLO-829): 312 nM | IC50 (CW-2; Homo sapiens, CW-2): > 5120 nM | IC50 (D283 Med; Homo sapiens, D283 Med): > 5120 nM | IC50 (DEL; Homo sapiens, DEL): > 5120 nM | IC50 (EKVX; Homo sapiens, EKVX): > 5120 nM | IC50 (GI-ME-N; Homo sapiens, GI-ME-N): 3250 nM | IC50 (GR-ST; Homo sapiens, GR-ST): > 5120 nM | IC50 (HCC1187; Homo sapiens, HCC1187): > 5120 nM | IC50 (HD-MY-Z; Homo sapiens, HD-MY-Z): > 5120 nM | IC50 (HL-60; Homo sapiens, HL-60): > 5120 nM | IC50 (HT-144; Homo sapiens, HT-144): 1450 nM | IC50 (J-RT3-T3-5; Homo sapiens, J-RT3-T3-5): > 5120 nM | IC50 (K5; Homo sapiens, K5): > 5120 nM | IC50 (KALS-1; Homo sapiens, KALS-1): > 5120 nM | IC50 (KM12; Homo sapiens, KM12): > 5120 nM | IC50 (KNS-81-FD; Homo sapiens, KNS-81-FD): > 5120 nM | IC50 (KP-N-YS; Homo sapiens, KP-N-YS): 4920 nM | IC50 (LB831-BLC; Homo sapiens, LB831-BLC): 127 nM | IC50 (LB996-RCC; Homo sapiens, LB996-RCC): 56.7 nM | IC50 (LS-1034; Homo sapiens, LS-1034): > 5120 nM | IC50 (Lu-65; Homo sapiens, Lu-65): > 5120 nM | IC50 (LXF-289 cell line): 1270 nM | IC50 (MEG-01; Homo sapiens, MEG-01): < 20 nM | IC50 (MHH-NB-11; Homo sapiens, MHH-NB-11): > 5120 nM | IC50 (MHH-PREB-1; Homo sapiens, MHH-PREB-1): > 5120 nM | IC50 (MOLT-4; Homo sapiens, MOLT-4): > 5120 nM | IC50 (MV4-11; Homo sapiens, MV4-11): > 5120 nM | IC50 (NCI-H1650; Homo sapiens, NCI-H1650): > 5120 nM | IC50 (NCI-H23; Homo sapiens, NCI-H23): > 5120 nM | IC50 (NCI-H720; Homo sapiens, NCI-H720): > 5120 nM | IC50 (NEC8; Homo sapiens, NEC8): > 5120 nM | IC50 (NH-12; Homo sapiens, NH-12): > 5120 nM | IC50 (ONS-76; Homo sapiens, ONS-76): > 5120 nM | IC50 (PSN1; Homo sapiens, PSN1): > 5120 nM | IC50 (RCC10RGB; Homo sapiens, RCC10RGB): 426 nM | IC50 (RPMI-8226; Homo sapiens, RPMI-8226): > 5120 nM | IC50 (SJSA-1; Homo sapiens, SJSA-1): > 5120 nM | IC50 (SK-LMS-1; Homo sapiens, SK-LMS-1): > 5120 nM | IC50 (SK-N-DZ; Homo sapiens, SK-N-DZ): > 5120 nM | IC50 (SK-PN-DW; Homo sapiens, SK-PN-DW): > 5120 nM | IC50 (A253 cell line; Homo sapiens, A253): > 5120 nM | IC50 (AM-38; Homo sapiens, AM-38): > 5120 nM | IC50 (BB49-HNC; Homo sapiens, BB49-HNC): > 5120 nM | IC50 (TE-10; Homo sapiens, TE-10): 4280 nM | IC50 (U-87 MG; Homo sapiens, U-87 MG): > 5120 nM | IC50 (UACC-257; Homo sapiens, UACC-257): > 5120 nM | IC50 (CCRF-CEM; Homo sapiens, CCRF-CEM): > 5120 nM

CC(C)C[C@@H](C=O)NC(=O)[C@H](CC(C)C)NC(=O)[C@H](CC(C)C)NC(=O)OCc1ccccc1 [MG-132] (Cbz-Leu-Leu-Leu-aldehyde)
IC50 (COLO-829; colo-829): 243 nM and > 1000 nM | IC50 (CW-2; cw-2): > 1000 nM | IC50 (D283 Med; d283 med): > 1000 nM | IC50 (DEL; del): > 1000 nM | IC50 (EKVX; ekvx): > 1000 nM | IC50 (GI-ME-N; gi-me-n): 193 nM and > 1000 nM | IC50 (GR-ST; gr-st): > 1000 nM | IC50 (HCC1187; hcc1187): > 1000 nM | IC50 (HD-MY-Z; hd-my-z): 233 nM and > 1000 nM | IC50 (HL-60; hl-60): > 1000 nM | IC50 (HT-144; ht-144): 139 nM and 334 nM | IC50 (J-RT3-T3-5; j-rt3-t3-5): > 1000 nM | IC50 (K5; k5): > 1000 nM | IC50 (KALS-1; kals-1): 466 nM and > 1000 nM | IC50 (KG-1): > 1000 nM | IC50 (KM12; km12): 855 nM and > 1000 nM | IC50 (KNS-81-FD; kns-81-fd): 303 nM and > 1000 nM | IC50 (KP-N-YS; kp-n-ys): > 1000 nM | IC50 (LB831-BLC; lb831-blc): 193 nM and 476 nM | IC50 (LB996-RCC; lb996-rcc): > 1000 nM | IC50 (LS-1034; ls-1034): > 1000 nM | IC50 (Lu-65; lu-65): > 1000 nM | IC50 (MEG-01; meg-01): > 1000 nM | IC50 (MHH-NB-11; Homo sapiens, MHH-NB-11): > 1000 nM | IC50 (MHH-NB-11; mhh-nb-11): > 1000 nM | IC50 (MHH-PREB-1; mhh-preb-1): > 1000 nM | IC50 (MOLT-4; molt-4): > 1000 nM | IC50 (MV4-11; mv-4-11): > 1000 nM | IC50 (NCI-H1650; nci-h1650): > 1000 nM | IC50 (NCI-H23; nci-h23): > 1000 nM | IC50 (NCI-H720; nci-h720): > 1000 nM | IC50 (NEC8; nec8): 120 nM and > 1000 nM | IC50 (NH-12; nh-12): > 1000 nM | IC50 (ONS-76; ons-76): 129 nM and 899 nM | IC50 (PSN1; psn1): > 1000 nM | IC50 (RCC10RGB; Homo sapiens, RCC10RGB): > 1000 nM | IC50 (RCC10RGB; rcc10rgb): > 1000 nM | IC50 (RPMI-8226; rpmi-8226): > 1000 nM and 423 nM | IC50 (SJSA-1; Homo sapiens, SJSA-1): > 1000 nM | IC50 (SJSA-1; sjsa-1): > 1000 nM | IC50 (SK-LMS-1; sk-lms-1): 193 nM and > 1000 nM | IC50 (SK-N-DZ; sk-n-dz): > 1000 nM | IC50 (SK-PN-DW; sk-pn-dw): 232 nM and > 1000 nM | IC50 (A253 cell line; a253): 161 nM and > 1000 nM | IC50 (AM-38; am-38): > 1000 nM | IC50 (BB49-HNC; bb49-hnc): 491 nM and > 1000 nM | IC50 (TE-10; te-10): 964 nM and > 1000 nM | IC50 (U-87 MG; Homo sapiens, U-87 MG): > 1000 nM | IC50 (U-87 MG; u-87mg atcc): > 1000 nM | IC50 (UACC-257; uacc-257): 119 nM and > 1000 nM | IC50 (CCRF-CEM; ccrf-cem): 477 nM and > 1000 nM
